Experimental data as given in patent US20250333805A1, “HERICIUM ERINACEUS STRAIN HE015, MOLECULAR MARKERS AND USES THEREOF” (INFINITUS (CHINA) COMPANY LTD., priority 2024, published 2025).

System: mice with chronic alcohol-induced gastric mucosal damage
Test: Chronic alcohol-induced gastric mucosal damage mice model (60% ethanol intragastrically): body weight, survival, HE staining of gastric tissue
Format: in vivo, Male KM mice
Details: for body weight of the mice at the end of the experiment, compared with Model: extracts 10 mg/mL, Lansoprazole 0.35 mg/mL, 0.3 mL intragastrically once daily for 2 weeks, 60% ethanol in second week, P<0.05 where significant
Experimental: Male KM mice, SPF grade, body weight of 18-22 g, 5-6 weeks of age, feeding temperature and humidity: 23±1° C. and 55±10%; 12 h day-and-night discontinuous illumination was used; conditions of the raising room were always kept stable, thereby ensuring the reliability of the test result. The mice took food and drank water freely.
Male KM mice were adaptively raised for 7 d, and then randomly divided into the following 8 groups: • Blank control group 1: Control • Model control group 1: Model • Administration group 1: Positive • Administration group 2: HEF • Administration group 3: HEFP • Administration group 4: HEFX • Administration group 5: HESP • Administration group 6: HESX.
There were 14 mice in the Model group, and 13 mice in the other groups, and the mice were fed with an ordinary fodder.
Experimental duration is 2 weeks:
First week: the mice in each administration group were prophylactically administered intragastrically once every day; and its administration concentration is shown in Table 9; meanwhile, the mice in the Control and Model groups were administered 0.3 mL of pure water intragastrically.
Second week: the mice in the Model and each administration groups were administered 0.3 mL of 60% ethanol intragastrically once per day for modeling, to induce a chronic alcohol-induced gastric mucosal damage mice model, and modeling was performed for a week; meanwhile, the mice in the administration groups were administered (administration concentration and dosage were the same as those in the first week), the protective effects of different administration groups on gastric mucosa were observed.
Administration was stopped the night before the end of the experiment; the mice were not allowed to take food, but allowed to drink water. Eyeballs were picked out and blood was collected, and then the mice were killed by cervical dislocation; gastric tissues were taken and placed into 4% paraformaldehyde stationary solution for immobilization, for use in pathological examination.

SMILES: Cc1c(OCC(F)(F)F)ccnc1C[S+]([O-])c1nc2ccccc2[nH]1 (stereo not drawn) [Positive, Lansoprazole]
- body weight of the mice at the end of the experiment, compared with Model (FIG. 5A): significantly greater than that in the Model
- body weight of the mice at the end of the experiment, compared with Model (FIG. 5A, listed as Lansoprazole): may increase the body weight
- death count of the mice at the end of the experiment (same regimen, compared with other groups, FIG. 5B): obviously higher than that in other groups
- HE staining of mice gastric tissues (gastric mucosa morphology) (same regimen, gastric tissue at end of experiment, FIG. 6): necrosis exfoliation of partial mucosal epithelial cells of the gastric tissue, loose arrangement of partial cells and infiltration of a small amount of inflammatory cells
- survival rate of the mice at the end of the experiment, compared with Model (same regimen, survival curve FIG. 5B): slightly higher than that of the Model group
- body weight of the mice during modeling, compared with Control (second week, 60% ethanol modeling, P<0.01, FIG. 5A): lower than that in the Control
